# Reference: patent US5608069A, “1-substituted, 3-carboxylic acid piperidine derivatives” (Novo Nordisk A/S, priority 1993, dated 1997)
# Counter-ions that a name gives are not always drawn.
# Tested on: not given
# Assay: not given
# Settings: relatively polar compound; cited from earlier work
row,Compound,ability to cross the blood-brain barrier (in words)
1,"O=C(O)C1CCCNC1 (stereo not drawn) [nipecotic acid, 3-piperidinecarboxylic acid]",unable to cross the blood-brain barrier

# Tested on: GABA uptake
# Assay: not given
# Settings: Yunger, L. M. et al., 1984; Krogsgaard-Larsen, P. et al., 1987; oral; cited from earlier work
row,Compound,orally active inhibition of GABA uptake (in words)
1,"O=C(O)CC1CCN(CCC=C(c2ccccc2)c2ccccc2)C1 (stereo not drawn) [SK&F 100561, N-(4,4-diphenyl-3-buten-1-yl)-homo-β-proline]",orally active inhibitors of GABA uptake
2,"O=C(O)C1=CCCN(CCC=C(c2ccccc2)c2ccccc2)C1 [SK&F 100330A, N-(4,4-diphenyl-3-buten-1-yl)guvacine]",orally active inhibitors of GABA uptake
3,"O=C(O)C1CCCN(CCC=C(c2ccccc2)c2ccccc2)C1 (stereo not drawn) [SK&F 89976A, N-(4,4-diphenyl-3-buten-1-yl)nipecotic acid]",orally active inhibitors of GABA uptake
4,"O=C(O)C1CCCN(CCC=C(c2ccccc2)c2cccs2)C1 (stereo not drawn) [SK&F 100604J, N-(4-phenyl-4-(2-thienyl)-3-buten-1-yl)nipecotic acid]",orally active inhibitors of GABA uptake

# Same assay, conditions: from the synaptic cleft into presynaptic nerve terminals and glial cells; cited from earlier work
row,Compound,inhibition of GABA uptake (in words)
1,"O=C(O)C1CCCNC1 (stereo not drawn) [nipecotic acid, 3-piperidinecarboxylic acid]",well-known and potent inhibitor of GABA uptake

# Tested on: [^3 H]-GABA uptake
# Assay: in vitro inhibition of [^3 H]-GABA uptake (rat cortical tissue homogenate)
# Assay type: biochemical, Male wistar rat
# Settings: tris HCl buffer pH 7.5, 60 minutes at 30° C.
# Description: Values for in vitro inhibition of [^3 H]-GABA uptake for the invention compounds were assessed essentially by the method of Fjalland (Acta Pharmacol. Toxicol. 1978, 42, 73-76). Male wistar rat cortical tissue was gently homogenized by hand using a glass/PTFE homogenizer in 10 volumes of 0.32M sucrose. Incubation was performed in a 40 mM tris HCl buffer (pH 7.5 at 30° C.) containing […], 4 mM MgSO4, […] and 10 mM glucose, for 60 minutes at 30° C. Values for inhibition of GABA uptake for some representative compounds are recorded in Table I.
row,IC50,Compound
1,4.5 µM,"O=C(O)[C@@H]1CCCN(CCO/N=C(/c2ccccc2)C(F)(F)F)C1 [Example 6, Z-(R)-1-(2-(((1-Phenyl-2,2,2-trifluoro-1-ethylidene)amino)oxy)ethyl)-3-piperidinecarboxylic acid hydrochloride]"
2,2 µM,"COC/C(=N\OCCN1CCC[C@@H](C(=O)O)C1)c1ccccc1 [Example 5, Z-(R)-1-(2-(((2-Methoxy-1-phenyl-1-ethylidene)amino)oxy)ethyl)-3-piperidinecarboxylic acid hydrochloride]"
3,> 9 µM,"Cc1ccccc1/C=N/OCCN1CCC[C@@H](C(=O)O)C1 [Example 1, E-(R )-1-(2-((((2-Methylphenyl)methylene)amino)oxy)ethyl)-3-piperidinecarboxylic acid hydrochloride]"
4,0.236 µM,CC(C)C=C(C=NOCCN1CCC[C@@H](C(=O)O)C1)c1ccccc1 [Example 2]
5,2.2 µM,"CCCCCCC/C(=N/OCCN1CCC[C@@H](C(=O)O)C1)c1ccccc1 [Example 3, Z-(R)-1-(2-(((1-Phenyl-1-octanylidene)amino)oxy)ethyl)-3-piperidinecarboxylic acid hydrochloride]"
6,1.1 µM,"CCCCCCC/C(=N\OCCN1CCC[C@@H](C(=O)O)C1)c1ccccc1 [Example 4, E-(R)-1-(2-(((1-Phenyl-1-octanylidene)amino)oxy)ethyl)-3-piperidinecarboxylic acid hydrochloride]"
